Assay results from paper PMC11779861 (Scientific Reports, 2025).
Where two headings read alike, the source gives them in different places. One block for each molecule: values may come before it.

Key:
[1] = tested on: hiPSC-CMs; test: Extracellular lactate dehydrogenase; type: cell-based, human; conditions: 48-hour treatment
[2] = tested on: ARPE-19 human retinal cells; test: MTS cell growth assay; type: cell-based; conditions: read-out: IC50 (cell growth)
[3] = tested on: Human Induced Pluripotent Stem Cell (hiPSC)-Derived Cardiomyocytes
[4] = tested on: hiPSC-CM cell monolayer; test: Cell health index: cardiomyocyte cell monolayer assessment; type: cell-based, human
[5] = cited from earlier work

SMILES: C=CCNC1=C2C[C@@H](C)C[C@H](OC)[C@H](O)[C@@H](C)/C=C(\C)[C@H](OC(N)=O)[C@@H](OC)/C=C\C=C(/C)C(=O)NC(=CC1=O)C2=O [17-AAG]
extracellular LDH (in words) [1]: highly dose-dependently toxic
IC50 ([2]; ARPE-19, 48 hr, MTS, Avg ± SD, N = 3 biological replicates): 0.02 µM
quiescence ([3]; 0.25 µM, 48 h): 1/8
quiescence ([3]; 2.5 µM, 24 h): 1/8
quiescence ([3]; 2.5 µM, 48 h): 6/8
quiescence ([3]; 10 µM, 24 h): 8/8
quiescence ([3]; 10 µM, 48 h): 8/8
quiescence ([3]; 50 µM, 24 h): 8/8
quiescence ([3]; 50 µM, 48 h): 8/8
cardiomyocyte function / cardio-toxicity (in words) ([3]; 24 h): severe dysregulation of cardiomyocyte function

electrical quiescence ([3]; 0.3 µM, 30 min): 1/8
SMILES: COc1cccc2c1C(=O)c1c(O)c3c(c(O)c1C2=O)C[C@@](O)(C(=O)CO)C[C@@H]3O[C@H]1C[C@H](N)[C@H](O)[C@H](C)O1 [Doxorubicin]
cardiomyocyte function / cardio-toxicity (in words) ([3]; 24 h): largely had no effect on electrophysiology
effect on the cell monolayer (in words) [4]: greater monolayer damage at both 24 and 48 h

SMILES: CCc1cc(C(N)=O)ccc1-n1nc(C(C)C)c2c(-n3cnc(-c4cnn(C)c4)c3)ccnc21 [TAS-116]
IC50 ([2]; Homo sapiens, ARPE-19, 48 h): 0.444 µM
ocular toxicities in vivo [5]: avoid any ocular toxicities in vivo

SMILES: CCNC(=O)c1noc(-c2cc(C(C)C)c(O)cc2O)c1-c1ccc(CN2CCOCC2)cc1 [NVP AUY922]
IC50 ([2]; Homo sapiens, ARPE-19, 48 h): < 0.01 µM
